Data set [1] is described as follows: DTNB assay: rate of disulfide bond reduction. In kind it is biochemical. On the set-up: unit not given here. The settings on record: 2nd order kinetic. As to the method:
DTNB ASSAY: This assay determines the rate which a mucolytic agent can reduce a disulfide bond using 5,5-Dithiobis(2-nitrobenzoic acid). DTNB in various pH buffers and allows comparison of the kinetic rates of reducing agents. First, reducing agent stock solutions (30 mM) were made up in DMSO. Each compound stock solution was diluted, […] in 1 ml 50 mM Tris-HCl buffer, pH 7.5, and then added in a 1:1 volumetric ratio to a solution of 100 mM DTNB in 50 mM Tris-HCl buffer, pH 7.5. Max Abs412 was measured and then utilized to calculate the activity concentration. If the observed activity concentrations differed from expected activity concentrations by more than 5%, the volume was accordingly adjusted to kinetically test the rate in the next step. After having added the reducing agents, diluted in a range of pH buffer solutions (pH 6.0-7.5), to 45 mM DTNB in 50 mM Tris-HCl and measured the Abs412 for 5 min rates were calculated as a 2nd order kinetic.

Data set [2] is described as follows: Elimination of inhaled NAC from the lungs in animal studies. The class given is in vivo. The settings on record: inhaled or intranasal, 14C-labeled NAC, administered by inhalation, animal studies (unpublished observation). The text has this:
NAC, as a topical pulmonary therapeutic agent, is not optimal for the reduction of mucin disulfide bonds. […] For example, in the pH environment of the airway surface (measured in the range of pH 6.0 to 7.2 in CF and COPD airways), NAC exists only partially in its reactive state as a negatively charge thiolate (Jayaraman S, Song Y, Vetrivel L, Shankar L, Verkman A S. Noninvasive in vivo fluorescence measurement of airway-surface liquid depth, salt concentration, and pH. J Clin Invest. 2001; 107(3):317-24) (FIG. 3). […] The relatively low reducing activity at of NAC physiologic airway pH and a the short half-life of NAC on the lung surface provide an explanation for the lack of strong clinical evidence for effective mucus reduction in mucus obstructive diseases.

In the next data set the test system is sheep treated with NE. The data set is described as follows: TMV studies in sheep (neutrophil elastase model of acute bronchitis). The class given is in vivo. The settings on record: 1 μmole/kg by aerosol after neutrophil elastase (NE). As to the method:
Test articles were administered to the pulmonary surfaces as an inhalation aerosol. For human neutrophil Elastase (HNE) studies, tracheal mucus velocity (TMV) was measured at 1 and 2 hours after HNE (but before drug); and 1, 30, 60, 90, and 120 minutes post-aerosol administration of Compound G.
The measurements of TMV were made as follows: Eight to 10 radiopaque Teflon disks (˜1 mm in diameter, 0.8 mm thick, and weighing between 1.5-2 mg) were introduced into the trachea via an endotracheal tube (ETT). The particles were insufflated by a catheter connected to a source of compressed air (flow rate of 3-4 ml/min at 50 psi). The catheter was removed following insufflation without contacting the tracheal surface. To minimize the ETT effects on TMV, the cuff was deflated throughout the study except for the period of drug delivery. The disk movements were recorded using videotaped fluoroscopy, and individual disk velocities were calculated by measuring the distance traveled by each disk over a 60-s period. A collar containing radiopaque markers of predetermined length was placed around the animal's neck, which was used as a standard to correct for magnification effects intrinsic to the fluoroscopy unit. The mean value of disk velocities was calculated for each time point. To avoid dehydration, the sheep were periodically gavaged with tap water via a nastrogastric tube. […]

By half-life is commonly meant how long it takes for the measured level to halve.

Structures can show the parent of a compound that is named as a salt.

Consider `CC(=O)N[C@@H](CS)C(=O)O` [NAC, N-acetyl cysteine, reference compound], for which the “Kinetic Reaction Rates of Reduction of DTNB” value worked out at 10 in data set [1] (pH 6), 26 in data set [1] (pH 6.5), 69 in data set [1] (pH 7) and 230 in data set [1] (pH 7.5). The compound also had a half-life in data set [2] of about 20 min.
In the case of `N=C(N)NCCCC[C@@H](N)C(=O)NCCOc1cc(CS)c(CS)cc1OCCNC(=O)[C@H](N)CCCCNC(=N)N` [Compound G, (2R,2′R)-N,N′-(2,2′-(4,5-bis(mercaptomethyl)-1,2-phenylene)bis(oxy)bis(ethane-2,1-diyl))bis(2-amino-6-guanidinohexanamide) Hydrochloride], the “Kinetic Reaction Rates of Reduction of DTNB” value in data set [1] (pH 6) worked out at 5154. Also, in the data set on sheep treated with NE, the “Duration of TMV restoration post-dosing” value is reported as 2 h. The “Tracheal mucus velocity (TMV)” value in the data set with sheep treated with NE (compared with vehicle) is “restored TMV to normal, pre-NE levels”.
Consider `N=C(N)NCCCC[C@H](N)C(=O)NCCCC[C@H](N)C(=O)NCCCC[C@H](N)C(=O)NCCOc1ccc(CS)c(CS)c1` [U, (S)-2-amino-6-((S)-2-amino-6-((S)-2-amino-6-guanidinohexanamido)hexanamido)-N-(2-(3,4-bis(mercaptomethyl)phenoxy)ethyl)hexanamide Hydrochloride], for which the “Kinetic Reaction Rates of Reduction of DTNB” value in data set [1] (pH 6) was determined as 5761.

(Values after patent publication US9346753B2, “Dithiol mucolytic agents” (PARION SCIENCES, INC., priority 2013, dated 2016).)
